The source of these data is patent US20180148418A1, “AMIDO-SUBSTITUTED CYCLOHEXANE DERIVATIVES” (Bayer Pharma Aktiengesellschaft, priority 2015, published 2018).

The term IC50 denotes the midpoint of a concentration-inhibition curve. A low value points to greater potency in that assay.

The experiment concerns the target T1, TNKS1 (Homo sapiens, UniProt O95271).
T1 construct: purchased BPS Bioscience, San Diego, USA 80579 (TNKS1 Histone Ribosylation Assay Kit)
T1 sequence (O95271 1-1327): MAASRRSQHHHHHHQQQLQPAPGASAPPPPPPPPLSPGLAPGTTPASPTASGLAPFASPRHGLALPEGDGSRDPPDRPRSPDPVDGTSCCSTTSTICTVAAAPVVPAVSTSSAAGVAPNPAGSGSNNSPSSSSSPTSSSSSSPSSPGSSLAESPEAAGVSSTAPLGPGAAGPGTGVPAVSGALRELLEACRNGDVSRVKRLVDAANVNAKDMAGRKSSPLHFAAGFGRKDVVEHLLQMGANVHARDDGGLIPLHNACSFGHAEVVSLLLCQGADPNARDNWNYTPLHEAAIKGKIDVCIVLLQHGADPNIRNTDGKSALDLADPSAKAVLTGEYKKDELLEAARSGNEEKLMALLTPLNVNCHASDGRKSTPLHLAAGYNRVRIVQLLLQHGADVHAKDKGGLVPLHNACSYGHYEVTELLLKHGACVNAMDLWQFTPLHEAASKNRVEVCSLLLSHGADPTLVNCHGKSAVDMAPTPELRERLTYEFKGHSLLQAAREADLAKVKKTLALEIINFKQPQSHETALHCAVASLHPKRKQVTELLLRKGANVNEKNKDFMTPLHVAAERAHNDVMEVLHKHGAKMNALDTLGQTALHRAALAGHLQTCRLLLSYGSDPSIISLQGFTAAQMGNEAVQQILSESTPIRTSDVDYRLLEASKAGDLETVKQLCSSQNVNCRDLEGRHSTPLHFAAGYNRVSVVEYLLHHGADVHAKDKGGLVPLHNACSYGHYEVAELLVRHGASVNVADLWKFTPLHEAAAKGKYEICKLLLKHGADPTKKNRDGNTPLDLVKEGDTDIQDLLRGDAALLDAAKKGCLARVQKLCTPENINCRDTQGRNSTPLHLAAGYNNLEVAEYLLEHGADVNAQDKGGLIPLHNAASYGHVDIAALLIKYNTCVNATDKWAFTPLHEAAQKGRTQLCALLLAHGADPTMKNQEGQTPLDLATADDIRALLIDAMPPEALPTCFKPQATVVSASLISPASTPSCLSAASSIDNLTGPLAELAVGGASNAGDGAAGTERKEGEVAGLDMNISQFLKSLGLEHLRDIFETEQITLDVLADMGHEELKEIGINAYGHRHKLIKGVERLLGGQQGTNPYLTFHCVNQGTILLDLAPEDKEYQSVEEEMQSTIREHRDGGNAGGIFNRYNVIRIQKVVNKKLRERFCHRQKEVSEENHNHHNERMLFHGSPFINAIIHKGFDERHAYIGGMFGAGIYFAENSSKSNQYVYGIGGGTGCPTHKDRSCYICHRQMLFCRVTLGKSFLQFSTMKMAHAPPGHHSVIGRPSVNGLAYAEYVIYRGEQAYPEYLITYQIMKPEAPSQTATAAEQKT
The experiment can be described thus: TNKS1 Assay B (auto-parsylation, [3H]-NAD+ SPA). It is filed as biochemical. To be noted: 6 nM TNKS1, auto-parsylation, over night at room temperature.
On to `O=C(NCC1CCCO1)c1nc[nH]c1C(=O)N[C@H]1CC[C@H](C(=O)Nc2c(F)cc(F)cc2Cl)CC1` (stereo partly drawn) [Example 69, N^5-{trans-4-[(2-chloro-4,6-difluorophenyl)carbamoyl]cyclohexyl}-N^4-(tetrahydrofuran-2-ylmethyl)-1H-imidazole-4,5-dicarboxamide], for which the IC50 stood at 57 nM.
On to `O=C(N[C@H]1CC[C@H](C(=O)Nc2ccc(F)cc2Cl)CC1)c1[nH]cnc1C(=O)N1CC(F)(F)C1` [Example 72, N-{trans-4-[(2-chloro-4-fluorophenyl)carbamoyl]cyclohexyl}-4-[(3,3-difluoroazetidin-1-yl)carbonyl]-1H-imidazole-5-carboxamide], for which 55 nM corresponded to half-maximal inhibition (IC50).
Regarding `O=C(N[C@H]1CC[C@H](C(=O)Nc2ccc(F)cc2Cl)CC1)c1[nH]cnc1C(=O)N1CC2(CCS2(=O)=O)C1` [Example 22, N-{trans-4-[(2-chloro-4-fluorophenyl)carbamoyl]cyclohexyl}-4-[(1,1-dioxido-1-thia-6-azaspiro[3.3]hept-6-yl)carbonyl]-1H-imidazole-5-carboxamide], 10 nM corresponded to half-maximal inhibition (IC50). Against the preceding compound, the IC50 is about 5.5-fold lower.
In the case of `Cc1cc(C)n2ncc(C(=O)N[C@H]3CC[C@@]4(CCN(c5cc(F)c(F)cc5Cl)C4=O)CC3)c2n1` [Example 299, N-[(trans)-2-(2-chloro-4,5-difluorophenyl)-1-oxo-2-azaspiro[4.5]dec-8-yl]-5,7-dimethylpyrazolo[1,5-a]pyrimidine-3-carboxamide] it was 7.1 nM; in that of `Cc1cc(N2CCC[C@]3(CC[C@@H](NC(=O)c4cnn5cccnc45)CC3)C2=O)c(Cl)cc1F` [Example 300, N-[(trans)-2-(2-chloro-4-fluoro-5-methylphenyl)-1-oxo-2-azaspiro[5.5]undec-9-yl]pyrazolo[1,5-a]pyrimidine-3-carboxamide], 94 nM.
Compound `CC(C)(O)CNC(=O)c1nc[nH]c1C(=O)N[C@H]1CC[C@H](C(=O)Nc2ccc(F)cc2Cl)CC1` [Example 75, N^5-{trans-4-[(2-chloro-4-fluorophenyl)carbamoyl]cyclohexyl}-N^4-(2-hydroxy-2-methylpropyl)-1H-imidazole-4,5-dicarboxamide] showed a half-inhibitory concentration (IC50) of 84 nM.
Take `Cc1c(C(C)(C)O)cnc2c(C(=O)N[C@H]3CC[C@H](C(=O)Nc4ccc(F)cc4Cl)CC3)cnn12` [Example 359, N-{trans-4-[(2-chloro-4-fluorophenyl)carbamoyl]cyclohexyl}-6-(2-hydroxypropan-2-yl)-7-methylpyrazolo[1,5-a]pyrimidine-3-carboxamide]: the IC50 is > 10000 nM.
The compound `COC(=O)c1cc(C)nc2c(C(=O)N[C@H]3CC[C@H](C(=O)Nc4ccc(F)cc4Cl)CC3)cnn12` [Example 352, methyl 3-({trans-4-[(2-chloro-4-fluorophenyl)carbamoyl]cyclohexyl}carbamoyl)-5-methylpyrazolo[1,5-a]pyrimidine-7-carboxylate] yielded an IC50 of 350 nM.
The compound `O=C(NC[C@H]1CCCO1)c1nc[nH]c1C(=O)N[C@H]1CC[C@H](C(=O)Nc2c(F)cc(F)cc2Cl)CC1` [Example 70, N^5-{trans-4-[(2-chloro-4,6-difluorophenyl)carbamoyl]cyclohexyl}-N^4-[(2R)-tetrahydrofuran-2-ylmethyl]-1H-imidazole-4,5-dicarboxamide] gave an IC50 of 78 nM.
For `COc1ccc2ncc(C(=O)N[C@H]3CC[C@H](C(=O)Nc4ccc(F)cc4Cl)CC3)n2n1` [Example 50, N-{trans-4-[(2-chloro-4-fluorophenyl)carbamoyl]cyclohexyl}-6-methoxyimidazo[1,2-b]pyridazine-3-carboxamide], inhibition was half-maximal at 110 nM (IC50).
For the compound `CNc1ccc2ncc(C(=O)N[C@H]3CC[C@H](C(=O)Nc4ccc(F)cc4Cl)CC3)n2n1` [Example 53, N-{trans-4-[(2-chloro-4-fluorophenyl)carbamoyl]cyclohexyl}-6-(methylamino)imidazo[1,2-b]pyridazine-3-carboxamide], the IC50 is 150 nM.
In the case of `CN1CCN(c2ccc3ncc(C(=O)N[C@H]4CC[C@H](C(=O)Nc5ccc(F)cc5Cl)CC4)n3n2)CC1` [Example 49, N-{trans-4-[(2-chloro-4-fluorophenyl)carbamoyl]cyclohexyl}-6-(4-methylpiperazin-1-yl)imidazo[1,2-b]pyridazine-3-carboxamide], the IC50 was 400 nM.
The same measure for `Cc1cc(N2CC[C@]3(CC[C@@H](NC(=O)c4[nH]cnc4C(=O)NCC(F)(F)F)CC3)C2=O)c(Cl)cc1F` [Example 297, N^5-[(trans)-2-(2-chloro-4-fluoro-5-methylphenyl)-1-oxo-2-azaspiro[4.5]dec-8-yl]-N^4-(2,2,2-trifluoroethyl)-1H-imidazole-4,5-dicarboxamide]: 10 nM.
In the case of `O=C(N[C@H]1CC[C@H](C(=O)Nc2ccc(F)cc2Cl)CC1)c1cnc2ccc(Cl)nn12` [Example 47, 6-chloro-N-{trans-4-[(2-chloro-4-fluorophenyl)carbamoyl]cyclohexyl}imidazo[1,2-b]pyridazine-3-carboxamide], it took 530 nM to reach half-maximal inhibition (IC50).
`CNC(=O)c1[nH]cnc1C(=O)N[C@@H]1CC[C@@H](C(=O)Nc2ccc(F)cc2Cl)C[C@H]1OC` (racemic) [Example 35, N^4-{(1α,2β,4β)-4-[(2-chloro-4-fluorophenyl)carbamoyl]-2-methoxycyclohexyl}-N^5-methyl-1H-imidazole-4,5-dicarboxamide]: the IC50 was > 10000 nM.
For the compound `COC(C)(C)CNC(=O)c1nc[nH]c1C(=O)N[C@H]1CC[C@H](C(=O)Nc2cc(F)c(F)cc2Cl)CC1` [Example 85, N^5-{trans-4-[(2-chloro-4,5-difluorophenyl)carbamoyl]cyclohexyl}-N^4-(2-methoxy-2-methylpropyl)-1H-imidazole-4,5-dicarboxamide], half-maximal inhibition (IC50) was put at 49 nM.
Regarding `CN(C)c1ccc2ncc(C(=O)N[C@H]3CC[C@H](C(=O)Nc4ccc(F)cc4Cl)CC3)n2n1` [Example 52, N-{trans-4-[(2-chloro-4-fluorophenyl)carbamoyl]cyclohexyl}-6-(dimethylamino)imidazo[1,2-b]pyridazine-3-carboxamide], the midpoint of inhibition, the IC50, lay at 22 nM. This IC50 is about 2.2-fold lower than that of the compound before.
`COC[C@H](C)NC(=O)c1nc[nH]c1C(=O)N[C@H]1CC[C@H](C(=O)Nc2c(F)cc(F)cc2Cl)CC1` [Example 66, N^5-{trans-4-[(2-chloro-4,6-difluorophenyl)carbamoyl]cyclohexyl}-N^4-[(2S)-1-methoxypropan-2-yl]-1H-imidazole-4,5-dicarboxamide] had an IC50 of 310 nM.
With `Cc1cc(C)n2ncc(C(=O)NC3CCC(C(=O)Nc4ccc(F)cc4Cl)CC3C)c2n1` (stereo not drawn) [Example 42, N-{4-[(2-chloro-4-fluorophenyl)carbamoyl]-2-methylcyclohexyl}-5,7-dimethylpyrazolo[1,5-a]pyrimidine-3-carboxamide], half-maximal inhibition (IC50) required 120 nM.
The compound `Cc1cc(N2CCC[C@]3(CC[C@@H](NC(=O)c4cnc5cccnn45)CC3)C2=O)c(Cl)cc1F` [Example 301, N-[(trans)-2-(2-chloro-4-fluoro-5-methylphenyl)-1-oxo-2-azaspiro[5.5]undec-9-yl]imidazo[1,2-b]pyridazine-3-carboxamide] returned an IC50 of 130 nM.
The compound `O=C(NCCN1CC2(CCO2)C1)c1nc[nH]c1C(=O)N[C@H]1CC[C@H](C(=O)Nc2ccc(F)cc2Cl)CC1` [Example 25, N^5-{trans-4-[(2-chloro-4-fluorophenyl)carbamoyl]cyclohexyl}-N^4-[2-(1-oxa-6-azaspiro[3.3]hept-6-yl)ethyl]-1H-imidazole-4,5-dicarboxamide] had an IC50 of 13 nM.
